Values joined by “and” are separate entries in the source; they are usually repeats but may differ in a detail not shown here. Equal values may be shown once. Toxic doses and inconclusive results are not listed. Rule as the data show it: active = T/C of 150% or more; inactive = T/C below 125%.
Test system: L1210 leukemia ip in BDF1 mice, survival T/C
Test: NCI In Vivo Anticancer Drug Screen. Data for tumor model L1210 Leukemia (intraperitoneal) in B6D2F1 (BDF1) mice
Conditions: endpoint: mean survival time, higher = longer survival
Outline: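 Transplantable tumor model; survival measured in treated vs vehicle control mice. Value = treated/control.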

[1] = dose: 100.0 mg/kg/injection, schedule: Q01DX009 (ip), vehicle: saline
[2] = dose: 100.0 mg/kg/injection, schedule: Q01DX009 (ip), vehicle: saline with Tween-80
[3] = dose: 200.0 mg/kg/injection, schedule: Q01DX009 (ip), vehicle: saline with Tween-80
[4] = dose: 400.0 mg/kg/injection, schedule: Q01DX009 (ip), vehicle: saline with Tween-80
[5] = dose: 100.0 mg/kg/injection, schedule: Q04DX002 (ip), vehicle: saline
[6] = dose: 200.0 mg/kg/injection, schedule: Q04DX002 (ip), vehicle: saline
[7] = dose: 100.0 mg/kg/injection, schedule: Q01DX001 (ip), vehicle: Klucel (hydroxypropylcellulose) (HPC)
[8] = dose: 200.0 mg/kg/injection, schedule: Q01DX001 (ip), vehicle: Klucel (hydroxypropylcellulose) (HPC)
[9] = dose: 400.0 mg/kg/injection, schedule: Q01DX001 (ip), vehicle: Klucel (hydroxypropylcellulose) (HPC)
[10] = dose: 100.0 mg/kg/injection, schedule: Q04DX003 (ip), vehicle: Klucel (hydroxypropylcellulose) (HPC)
[11] = dose: 25.0 mg/kg/injection, schedule: Q01DX009 (ip), vehicle: saline with Tween-80
[12] = dose: 50.0 mg/kg/injection, schedule: Q01DX009 (ip), vehicle: saline with Tween-80
[13] = dose: 100.0 mg/kg/injection, schedule: Q04DX003 (ip), vehicle: saline with Tween-80
[14] = dose: 200.0 mg/kg/injection, schedule: Q04DX003 (ip), vehicle: saline with Tween-80
[15] = dose: 400.0 mg/kg/injection, schedule: Q04DX003 (ip), vehicle: saline with Tween-80

Measured: T/C

CC(C)OP(=O)(CP(=O)(OC(C)C)OC(C)C)OC(C)C
inactive: [1] 95 % of control | dose: 200.0 mg/kg/injection, schedule: Q01DX009 (ip), vehicle: saline 97 % of control

O=C(Nc1ccc([N+](=O)[O-])cc1Cl)Sc1ccccc1O
inactive: [2] 104 % of control | [3] 104 % of control | [4] 86 % of control

O=C(NNC(=S)Nc1cccc(Cl)c1)c1ccncc1
inactive: dose: 25.0 mg/kg/injection, schedule: Q01DX009 (ip), vehicle: Klucel (hydroxypropylcellulose) (HPC) 104 % of control | dose: 50.0 mg/kg/injection, schedule: Q01DX009 (ip), vehicle: Klucel (hydroxypropylcellulose) (HPC) 96 % of control | dose: 100.0 mg/kg/injection, schedule: Q01DX009 (ip), vehicle: Klucel (hydroxypropylcellulose) (HPC) 96 % of control

CCCCOC(=O)c1[nH]cnc1/N=N/N(C)CCCC
inactive: dose: 100.0 mg/kg/injection, schedule: Q01DX001 (ip), vehicle: other 112 % of control | dose: 200.0 mg/kg/injection, schedule: Q01DX001 (ip), vehicle: other 120 % of control

CCN(CC)CCCNCC(Cc1ccccc1)c1ccccc1 (centres undefined)
inactive: [5] 92 % of control | [6] 99 % of control

CCCCCCCCCCCSCCSCCSCCCCCCCCCCC
inactive: [7] 88 % of control | [8] 95 % of control | [9] 90 % of control

CCOC(CN(C(C)=O)C1(c2ccc(OC)c(OC)c2)C(=O)c2ccccc2C1=O)OCC
inactive: [7] 110 % of control | [8] 105 % of control | [9] 98 % of control

CNc1cc(Cl)c(Cl)cc1[N+](=O)[O-]
inactive: dose: 100.0 mg/kg/injection, schedule: Q01DX009 (ip), vehicle: saline sonified 98 % of control | [10] 95 % of control | dose: 200.0 mg/kg/injection, schedule: Q01DX009 (ip), vehicle: saline sonified 98 % of control | dose: 200.0 mg/kg/injection, schedule: Q04DX003 (ip), vehicle: Klucel (hydroxypropylcellulose) (HPC) 98 % of control | dose: 400.0 mg/kg/injection, schedule: Q01DX009 (ip), vehicle: saline sonified 98 % of control | dose: 400.0 mg/kg/injection, schedule: Q04DX003 (ip), vehicle: Klucel (hydroxypropylcellulose) (HPC) 104 % of control

Nc1nc(NCCCc2ccccc2)c(N)c(=O)[nH]1
inactive: [11] 94 % of control | [12] 92 % of control | [2] 92 % of control and 97 % of control

C=CS(=O)(=O)CCc1ccccc1
inactive: dose: 100.0 mg/kg/injection, schedule: Q04DX002 (ip), vehicle: saline with Tween-80 115 % of control | dose: 200.0 mg/kg/injection, schedule: Q04DX002 (ip), vehicle: saline with Tween-80 102 % of control | dose: 400.0 mg/kg/injection, schedule: Q04DX002 (ip), vehicle: saline with Tween-80 91 % of control

COc1cccc(NC(=O)NCCCl)c1
inactive: dose: 12.5 mg/kg/injection, schedule: Q01DX009 (ip), vehicle: saline with Tween-80 96 % of control | [11] 86 % of control | [12] 90 % of control

S=C(Nc1ccc(Cl)c(Cl)c1)SCc1ccc2c(c1)OCO2
inactive: dose: 37.5 mg/kg/injection, schedule: Q01DX009 (ip), vehicle: saline 120 % of control | dose: 75.0 mg/kg/injection, schedule: Q04DX003 (ip), vehicle: saline with Tween-80 101 % of control | dose: 150.0 mg/kg/injection, schedule: Q01DX009 (ip), vehicle: saline 102 % of control | dose: 150.0 mg/kg/injection, schedule: Q04DX003 (ip), vehicle: saline with Tween-80 104 % of control | dose: 300.0 mg/kg/injection, schedule: Q04DX003 (ip), vehicle: saline with Tween-80 123 % of control

N=C(N)SCCCSC(=N)N
inactive: dose: 25.0 mg/kg/injection, schedule: Q04DX003 (ip), vehicle: Klucel (hydroxypropylcellulose) (HPC) 95 % of control | dose: 50.0 mg/kg/injection, schedule: Q04DX003 (ip), vehicle: Klucel (hydroxypropylcellulose) (HPC) 97 % of control | [1] 102 % of control | [10] 97 % of control and 98 % of control

Cc1ccc2c(c1)NP(=S)(c1ccccc1)N2 (centres undefined)
inactive: [13] 103 % of control | [14] 103 % of control | [15] 100 % of control

CC1C(N)CC2CC1C2(C)C (centres undefined)
inactive: dose: 12.5 mg/kg/injection, schedule: Q04DX002 (ip), vehicle: saline 113 % of control | dose: 25.0 mg/kg/injection, schedule: Q04DX002 (ip), vehicle: saline 102 % of control | dose: 50.0 mg/kg/injection, schedule: Q04DX002 (ip), vehicle: saline 102 % of control

O=c1n(CCCl)c(=O)n(CCCl)c(=O)n1CCCl
inactive: dose: 50.0 mg/kg/injection, schedule: Q04DX003 (ip), vehicle: saline with Tween-80 103 % of control | [13] 88 % of control | [14] 96 % of control and 87 % of control | [15] 98 % of control

CC(C)(CO)CN1CCCC1
inactive: dose: 100.0 mg/kg/injection, schedule: Q01DX001 (ip), vehicle: saline 103 % of control | dose: 200.0 mg/kg/injection, schedule: Q01DX001 (ip), vehicle: saline 100 % of control

CCCCCCCCCCCCCCCCC1=NCCN1
inactive: dose: 5.0 mg/kg/injection, schedule: Q01DX009 (ip), vehicle: saline 91 % of control | dose: 10.0 mg/kg/injection, schedule: Q01DX001 (ip), vehicle: saline 94 % of control | dose: 10.0 mg/kg/injection, schedule: Q01DX009 (ip), vehicle: saline 91 % of control | dose: 10.0 mg/kg/injection, schedule: Q04DX003 (ip), vehicle: saline 94 % of control | dose: 20.0 mg/kg/injection, schedule: Q01DX001 (ip), vehicle: saline 97 % of control | dose: 20.0 mg/kg/injection, schedule: Q01DX009 (ip), vehicle: saline 88 % of control | dose: 20.0 mg/kg/injection, schedule: Q04DX003 (ip), vehicle: saline 93 % of control and 90 % of control | dose: 40.0 mg/kg/injection, schedule: Q01DX001 (ip), vehicle: saline 101 % of control | dose: 40.0 mg/kg/injection, schedule: Q04DX003 (ip), vehicle: saline 95 % of control and 88 % of control

COc1cc(/C=C2\CCNC2=O)ccc1OCc1ccccc1
inactive: dose: 50.0 mg/kg/injection, schedule: Q01DX001 (ip), vehicle: carboxymethylcellulose (CMC) 94 % of control | dose: 100.0 mg/kg/injection, schedule: Q01DX001 (ip), vehicle: carboxymethylcellulose (CMC) 105 % of control | dose: 200.0 mg/kg/injection, schedule: Q01DX001 (ip), vehicle: carboxymethylcellulose (CMC) 97 % of control | dose: 400.0 mg/kg/injection, schedule: Q01DX001 (ip), vehicle: carboxymethylcellulose (CMC) 103 % of control

CC1=C(O)C(=O)C(C2=C(O)C(=O)C(C)=C(O)C2=O)=C(O)C1=O
inactive: dose: 0.1 mg/kg/injection, schedule: Q01DX Z (ip), vehicle: carboxymethylcellulose (CMC) 111 % of control | dose: 0.2 mg/kg/injection, schedule: Q01DX Z (ip), vehicle: carboxymethylcellulose (CMC) 105 % of control | dose: 0.5 mg/kg/injection, schedule: Q01DX Z (ip), vehicle: carboxymethylcellulose (CMC) 94 % of control | dose: 1.0 mg/kg/injection, schedule: Q01DX Z (ip), vehicle: carboxymethylcellulose (CMC) 94 % of control | dose: 5.0 mg/kg/injection, schedule: Q01DX001 (ip), vehicle: carboxymethylcellulose (CMC) 103 % of control | dose: 10.0 mg/kg/injection, schedule: Q01DX001 (ip), vehicle: carboxymethylcellulose (CMC) 102 % of control | dose: 12.0 micrograms/kg/injection, schedule: Q01DX Z (ip), vehicle: carboxymethylcellulose (CMC) 101 % of control | dose: 25.0 micrograms/kg/injection, schedule: Q01DX Z (ip), vehicle: carboxymethylcellulose (CMC) 101 % of control | dose: 50.0 micrograms/kg/injection, schedule: Q01DX Z (ip), vehicle: carboxymethylcellulose (CMC) 101 % of control

COc1ccc(C)cc1NC(=O)SCc1ccccc1
inactive: [2] 100 % of control | [3] 101 % of control | [4] 94 % of control

CCCCOP(=O)(OCCCC)[O][Pb]([CH2]C)([CH2]C)[CH2]C
inactive: dose: 3.13 mg/kg/injection, schedule: Q01DX009 (ip), vehicle: saline with Tween-80 101 % of control | dose: 6.25 mg/kg/injection, schedule: Q01DX009 (ip), vehicle: saline with Tween-80 91 % of control

CCOCCOCCOC(C)Oc1ccccc1OC (centres undefined)
inactive: [5] 111 % of control | [6] 96 % of control | dose: 400.0 mg/kg/injection, schedule: Q04DX002 (ip), vehicle: saline 114 % of control

— PubChem BioAssay AID248 (DTP/NCI, 2004)
